Data on 4 molecules can be found in paper PMC11845477, “Exploring the principles behind antibiotics with limited resistance” (Nature Communications, 2025).

Bounds are passed on as bounds.

Assay [1] has as its system E. coli ATCC 25922 (SEN) and E. coli NCTC13846 (MDR). In words: microbe, parasite or virus in culture. The settings on record: for MIC: across three biological replicates. The assay is classed as cell-based, Escherichia coli. Here is the method: (§1) This study focused on multiple bacterial strains, as follows. For the FoR and ALE experiments, 2 strains per species were chosen: E. coli ATCC 25922, K. pneumoniae ATCC 10031, A. baumannii ATCC 17978, and P. aeruginosa ATCC BAA-3107 as sensitive (SEN) strains, and E. coli NCTC13846, K. pneumoniae ATCC 700603, A. baumannii ATCC BAA-1605 and P. aeruginosa LESB58 as multi-drug resistant (MDR) strains. Functional metagenomic screens were performed with E. coli ATCC 25922 and K. pneumoniae ATCC 10031 strains. To determine the dose-kill properties of the different antibiotics, an E. coli strain (ATCC 25922) expressing a yellow fluorescent protein (pZS2R, YFP, CHL^R) and a red fluorescent protein (pZS2R, mCherry, CHL^R) was used.
(§2) Unless otherwise indicated, cation-adjusted Mueller-Hinton Broth 2 (MHB, Millipore) medium was used throughout the study, except for SCH79797 (SCH).
(§3) A robotic liquid handling system was used to automatically prepare a 11 to 16-step serial dilution in 384-well microtiter plates (Greiner). A final concentration of 5 × 10^5 bacterial cells per mL were inoculated into each well containing 60 µL MHB medium. Bacterial cultures were incubated at 37 °C with continuous shaking (Infors shaker, 900 rpm with 3 mm throw) for 18 hours (2 replicates from each). Cell growth was monitored by measuring the optical density (OD600 values, using Biotek Synergy microplate reader). MIC was defined as the antibiotic concentration of complete growth inhibition (i.e., OD600 < 0.05). Relative MIC was calculated as follows:1 relativeMIC=MICevolved/MICancestor

Assay [2] relates to K. pneumoniae ATCC 10031 (SEN) and K. pneumoniae ATCC 700603 (MDR). In words: microbe, parasite or virus in culture. The assay is classed as cell-based, Klebsiella pneumoniae. The settings on record: for MIC: across three biological replicates. Here is the method:
as §1, §2, §3

In assay [3] the test system is A. baumannii ATCC 17978 (SEN) and A. baumannii ATCC BAA-1605 (MDR). In words: microbe, parasite or virus in culture. The assay is classed as cell-based, Acinetobacter baumannii. Conditions: for MIC: across three biological replicates. Here is the method:
as §1, §2, §3

Assay [4] concerns P. aeruginosa ATCC BAA-3107 (SEN) and P. aeruginosa LESB58 (MDR). The assay is described as follows: microbe, parasite or virus in culture. The assay is classed as cell-based, Pseudomonas aeruginosa. Conditions: for MIC: across three biological replicates. Here is the method:
as §1, §2, §3

Assay [5] relates to A. baumannii ATCC 17978 (SEN) and A. baumannii ATCC BAA-1605 (MDR). The assay is described as follows: Frequency-of-resistance (FoR) assay, relative MIC of mutants. It is filed as cell-based, Acinetobacter baumannii. The settings on record: for Relative MIC: Acinetobacter baumannii ATCC 17978 (AB-SEN); for MIC: Acinetobacter baumannii, read-out: MIC of evolved line, Acinetobacter baumannii ATCC 17978 (AB-SEN). The method, then: (§4) The susceptibility of antibiotics to resistance development was evaluated in two strains of each bacterial species: a multidrug-resistant strain and an antibiotic-sensitive strain of Escherichia coli, Klebsiella pneumoniae, Acinetobacter baumannii, and Pseudomonas aeruginosa. To explore first-step resistance, we previously used a standard protocol for spontaneous frequency-of-resistance analysis (FoR assay) at multiple concentrations of each antibiotic[10],[28],[31]–[33]. […] For all other combinations, approximately 10^10 bacterial cells were exposed to one of each antibiotic on agar plates for two days at concentrations where the given strain is susceptible. We examined resistance levels by contrasting the minimum inhibitory concentration (MICs) of the mutated strains to the original wild-type bacterial strain (i.e., relative MIC).
(§5) To estimate the frequency of spontaneous mutations that confer resistance in a microbial population, we conducted a frequency of resistance (FoR) assay following established protocols[10],[31]–[33]. […] Prior to plating, bacteria were grown overnight in MHB medium at 37 °C and 250 RPM, then centrifuged and washed in MHB. All experiments were performed in triplicate, and plates were incubated at 37 °C for 48 hours. Total colony-forming units (CFUs) were determined by plating appropriate dilutions onto antibiotic-free MHB agar. Resistance frequencies were calculated by dividing the number of resistant colonies by the initial viable cell count. From the plates with the highest antibiotic concentration, ten colonies were selected for MIC determination and whole-genome sequencing.
as §3, with “relativeMIC=MICevolved/MICancestor […]” for “relativeMIC=MICevolved/MICancestor”
(§6) Supplementary Figure 3. Resistance levels following the frequency of resistance assay across bacterial strains. The level of resistance was measured as the fold change in relative MIC between evolved and ancestral strains. Data are grouped by bacterial strain (A. baumannii (AB), E. coli (EC), K. pneumoniae (KP), and P. aeruginosa (PA)) and categorized as either multidrug-resistant (MDR) or sensitive (SEN). Each data point represents a laboratory evolved line, and boxplots show the median, first and third quartiles, with whiskers indicating the 5th and 95th percentiles. […]
(§7) analysis was performed using two-sided Dunn’s post-hoc test with Benjamini-Hochberg correction for multiple comparisons (**/ * indicates p < 0.01/ 0.05). For detailed information on antibiotic and bacterial species, see Supplementary Table 1. For mode of action groups, refer to Table 1. Source data are provided as a Source Data file.

Assay [6] deals with E. coli ATCC 25922 (SEN) and E. coli NCTC13846 (MDR). The description is as above. It is filed as cell-based, Escherichia coli. The settings on record: for MIC: Escherichia coli; for Relative MIC / MIC of evolved line: Escherichia coli ATCC 25922 (EC-SEN). Here is the method: as §4, §5
as §3, with “relativeMIC=MICevolved/MICancestor […]” for “relativeMIC=MICevolved/MICancestor”
as §6, §7

[7] abbreviates: Escherichia coli, Escherichia coli ATCC 25922 (EC-SEN).
[8] abbreviates: Escherichia coli, Escherichia coli NCTC 13846 (EC-MDR).
Where [9] appears, read: Klebsiella pneumoniae ATCC 10031 (KP-SEN), ancestor strain, sheet fig 2a.
Where [10] appears, read: Klebsiella pneumoniae ATCC 700603 (KP-MDR), ancestor strain, sheet fig 2a.
Setting [11] is: Klebsiella pneumoniae, Klebsiella pneumoniae ATCC 10031 (KP-SEN).
Where [12] appears, read: Klebsiella pneumoniae, Klebsiella pneumoniae ATCC 700603 (KP-MDR).
[13] abbreviates: Acinetobacter baumannii ATCC 17978 (AB-SEN), ancestor strain, sheet fig 2a.
Setting [14] is: Acinetobacter baumannii, Acinetobacter baumannii ATCC 17978 (AB-SEN).
Setting [15] is: Acinetobacter baumannii, Acinetobacter baumannii ATCC BAA-1605 (AB-MDR).
The mark [16] stands for this setting: Pseudomonas aeruginosa, ATCCBAA3107, Pseudomonas aeruginosa ATCC BAA-3107 (PA-SEN).
Where [17] appears, read: Pseudomonas aeruginosa, ATCCBAA3107, Pseudomonas aeruginosa LESB 58 (PA-MDR).
Setting [18] is: Escherichia coli ATCC 25922 (EC-SEN), ancestor strain, sheet fig 2a.
Setting [19] is: read-out: MIC of evolved line, Escherichia coli ATCC 25922 (EC-SEN), evolved line 2.
[20] abbreviates: ancestor EC-SEN (Escherichia coli ATCC 25922).

Take `CN[C@@H]1[C@@H](O[C@H]2O[C@H](CO)[C@@H](N)[C@H](O)[C@H]2O)OC2C[C@@H](N)[C@@H](O[C@H]3[C@H](O)[C@@H](O)[C@H](N)C[C@@H]3N)OC2[C@@H]1O` (stereo partly shown) [Apramycin]: the MIC in assay [1] (setting [7]) is 16 µg/mL; in assay [1] (setting [8]), 8 µg/mL; in assay [2] (setting [11]) it was 2 µg/mL; in assay [2] (setting [12]) it was 4 µg/mL; in assay [3] (setting [14]) it was 4 µg/mL; in assay [3] (setting [15]), 8 µg/mL. Moreover, the MIC in assay [4] (setting [16]) was 8 µg/mL; in assay [4] (setting [17]) it was above 32 µg/mL; in assay [5] (evolved line 1), 32 µg/mL; in assay [5] (evolved line 2), 64 µg/mL; in assay [5] (evolved line 3), 32 µg/mL. Moreover, the MIC of ancestor in assay [2] (Klebsiella pneumoniae ATCC 10031 (KP-SEN), ancestor strain) amounted to 2 µg/mL; in assay [2] (setting [9]), 2 µg/mL; in assay [2] (Klebsiella pneumoniae ATCC 700603 (KP-MDR), ancestor strain), 4 µg/mL; in assay [2] (setting [10]) it was 4 µg/mL; in assay [3] (Acinetobacter baumannii ATCC 17978 (AB-SEN), ancestor strain), 4 µg/mL; in assay [3] (setting [13]), 4 µg/mL. Also, the figures for the “Relative MIC” value in assay [5] (evolved line 1 versus ancestor), in assay [5] (evolved line 2 versus ancestor) and in assay [5] (evolved line 3 versus ancestor) were 8, 16 and 8, respectively.

Regarding `C[C@@H](O)[C@H]1C(=O)N2C(C(=O)O)=C(S[C@@H]3CN[C@H](C(=O)N(C)C)C3)[C@H](C)[C@H]12` [Meropenem], the MIC of ancestor in assay [1] (E. coli NCTC 13846 (EC-MDR), ancestor strain, sheet fig 2a) was 0.0156 µg/mL; in assay [1] (EC-MDR, Escherichia coli NCTC 13846, ancestor strain), 0.0156 µg/mL; in assay [1] (EC-SEN, Escherichia coli ATCC 25922, ancestor strain), 0.0312 µg/mL; in assay [1] (setting [18]) it was 0.0312 µg/mL; in assay [2] (KP-MDR, Klebsiella pneumoniae ATCC 700603, ancestor strain), 0.0625 µg/mL; in assay [2] (setting [9]), 0.0312 µg/mL. In addition, the MIC of ancestor in assay [2] (setting [10]) was 0.0625 µg/mL; in assay [3] (AB-SEN, Acinetobacter baumannii ATCC 17978, ancestor strain), 1 µg/mL; in assay [3] (setting [13]), 1 µg/mL; in assay [4] (P. aeruginosa ATCC BAA 3107 (PA-SEN), ancestor strain, sheet fig 2a), 0.0312 µg/mL; in assay [4] (P. aeruginosa LESB 58 (PA-MDR), ancestor strain, sheet fig 2a), 2 µg/mL; in assay [4] (PA-MDR, Pseudomonas aeruginosa LESB 58, ancestor strain), 2 µg/mL. Further, in assay [4] (PA-SEN, Pseudomonas aeruginosa ATCC BAA 3107, ancestor strain), the MIC of ancestor is 0.0312 µg/mL. For the same molecule, the MIC in assay [1] (setting [7]) is 0.0312 µg/mL; in assay [1] (setting [8]), below 0.0312 µg/mL; in assay [2] (setting [11]), 0.0312 µg/mL; in assay [2] (setting [12]), 0.0625 µg/mL; in assay [3] (setting [14]), 1 µg/mL; in assay [3] (setting [15]), above 32 µg/mL. In addition, the MIC was 0.0312 µg/mL in assay [4] (setting [16]); 2 µg/mL in assay [4] (setting [17]); 0.0156 µg/mL in assay [6] (read-out: MIC of evolved line, E. coli NCTC 13846 (EC-MDR), evolved line 2); 0.0156 µg/mL in assay [6] (read-out: MIC of evolved line, Escherichia coli ATCC 25922 (EC-SEN), evolved line 1); 0.0156 µg/mL in assay [6] (setting [19]); 0.0156 µg/mL in assay [6] (read-out: MIC of evolved line, Escherichia coli ATCC 25922 (EC-SEN), evolved line 3).

Turning to `C[C@@H]1CN2c3c(cc4c(N5C(=O)OC[C@@H]5C)noc4c3F)CC3(C(=O)NC(=O)NC3=O)[C@H]2[C@H](C)O1` [Zoliflodacin], the MIC of ancestor in assay [1] (setting [18]) was found to be 2 µg/mL; in assay [1] (setting [20]), 2 µg/mL; in assay [2] (K. pneumoniae ATCC 10031 (KP-SEN), ancestor strain) it was 0.125 µg/mL; in assay [2] (setting [9]) it was 0.125 µg/mL. The MIC is 2 µg/mL in assay [1] (setting [7]); 16 µg/mL in assay [1] (setting [8]); 0.125 µg/mL in assay [2] (setting [11]); above 32 µg/mL in assay [2] (setting [12]); 8 µg/mL in assay [3] (setting [14]); 16 µg/mL in assay [3] (setting [15]). The results for the MIC in assay [4] (setting [16]), in assay [4] (setting [17]) and in assay [6] (setting [19]) were 8 µg/mL, above 32 µg/mL and 16 µg/mL, respectively. Also, the “Relative MIC” value in assay [6] (evolved line 1 versus ancestor), in assay [6] (evolved line 2 versus ancestor) and in assay [6] (evolved line 3 versus ancestor) was 8 each time.

Regarding Tridecaptin M152-P3, the MIC of ancestor in assay [1] (setting [18]), in assay [1] (setting [20]), in assay [2] (setting [9]) and in assay [2] (ancestor KP-SEN (Klebsiella pneumoniae ATCC 10031)) was 4 µg/mL throughout. Besides, the MIC in assay [1] (Escherichia coli ATCC 25922 (EC-SEN)) stood at 4 µg/mL; in assay [1] (Escherichia coli NCTC 13846 (EC-MDR)), 8 µg/mL; in assay [2] (Klebsiella pneumoniae ATCC 10031 (KP-SEN)), 4 µg/mL; in assay [2] (Klebsiella pneumoniae ATCC 700603 (KP-MDR)), 8 µg/mL; in assay [3] (Acinetobacter baumannii ATCC 17978 (AB-SEN)), 8 µg/mL; in assay [3] (Acinetobacter baumannii ATCC BAA-1605 (AB-MDR)), 8 µg/mL. Also, the MIC is 32 µg/mL in assay [4] (Pseudomonas aeruginosa ATCC BAA-3107 (PA-SEN)) and above 32 µg/mL in assay [4] (Pseudomonas aeruginosa LESB 58 (PA-MDR)). In addition, the MIC of evolved line in assay [6] (evolved line 1), in assay [6] (evolved line 2) and in assay [6] (evolved line 3) was 4 µg/mL in each case.
